Results taken from US20250034171A1, “IMIDAZOPYRIDINE AMIDES AND RELATED COMPOUNDS FOR USE IN THE TREATMENT OF BACTERIAL INFECTIONS” (priority 2021, published 2025).
In brackets after ≈: the same amount, converted by molar mass. Like-named read-outs stand apart in the source and are kept apart here.

How the values were obtained:
[1] = test system: Mycobacterium tuberculosis strain H37Rv; test: Test 2: MIC determination against M. tuberculosis, resazurin fluorescence; assay type: cell-based; conditions: Test 2, M. tuberculosis H37Rv; for MIC90: read-out: Bacterial activity MIC90; for IC50: read-out: Bacterial activity pMIC50 (converted)
[2] = test system: Salmonella typhimurium Ames II Mixed Strains (TA7001-TA7006) and TA98; test: Genotoxicity assay (AmesIIb mutagenicity test); assay type: cell-based; also: key: an AmesIIb score of 1 shows no genotoxicity signals
Source text: The aim is to evaluate compounds (and/or their metabolites) for their ability to induce reverse mutations in a gene of histidine-requiring Salmonella typhimurium strains to produce histidine-independent strains of these bacteria, in the absence and in the presence of a mammalian metabolic activation system.
Point mutations were made in the histidine (His) operon in Salmonella typhimurium, rendering the bacteria incapable of producing histidine. These single base substitutions are positioned at strategic points within the His gene, resulting in his-organisms that cannot grow unless histidine is supplied. When a mutagenic event occurs, base substitutions within the His gene then cause the reversion of the his-Ames II™ strains to His.
A chemical's mutagenic potential is assessed by exposing these his-organisms to varying concentrations of chemical and selecting for the reversion event. Medium lacking histidine is used for this selection which allows only those cells that have undergone the his- to His reversion to survive and grow.
The assay may be performed using a kit and instructions from Xenometric. The two strains provided in the Xenometric kit are the Ames II™ Mixed Strains and TA98. The Ames II™ Mixed Strains contains an equimolar mixture of the Ames II™ TA7001-TA7006 strains. Individually, these strains are designed to revert by only one specific base-pair substitution out of six possible changes. Thus, when mixed, all six base substitution mutations can be represented in one culture. This kit also contains TA98 for the detection of frameshift mutations.

[3] = HTChem stab assay (chemical stability in buffer pH2, pH4 and pH7 vs DMSO reference); assay type: physicochemical
Description: HTChem stab assay was used to assess the chemical stability of the compounds. 72 h stirring at rt in a buffer pH2, pH4 and pH7 vs a reference DMSO solution. HTChem stab assay is based on the handbook of Pharmaceutical Stress Testing, Predicting Drug Degradation, second edition, authors Baertschi, Alsante, Reed ISBN 978-143980179-6.
Compounds were plated (1 μl 10 mM DMSO stock in 96 well plate (DMSO control+3 pH conditions), one plate per condition).
200 μL of respectively DMSO, Buffer/DMSO mix pH2, Buffer/DMSO mix pH4 and Buffer/DMSO mix pH7 was added.
After 72 h shaking (300 rpm) at room temperature the samples were analysed by LC/UV/MS. Chromatograms of samples (stability conditions) were compared with the chromatograms of control sample (DMSO). Extra peaks were flagged and identified by mass spectrometry. Sample purity (reference included) were reported.
• pH3 buffer: For 11; weigh 4.14 g NaH2PO4·H2O, add 600 ml H2O, add H3PO4 to pH3, add H2O to 1000 ml. Filter over 0.2 μm and store at 4° C. Expires after 30 days. • pH6 buffer: For 1 l; weigh 4.14 g NaH2PO4·H2O, add 600 ml H2O, add 1N NaOH to pH6, add H2O to 1000 ml. Filter over […] and store at 4° C. Expires after 30 days.
• pH2 Buffer/DMSO (StabSolvent): mix 2 parts of HCl 0.1N with 1 part of DMSO • pH4 Buffer/DMSO (StabSolvent): mix 2 parts of buffer pH3 with 1 part of DMSO • pH7 Buffer/DMSO (StabSolvent): mix 2 parts of buffer pH6 with 1 part of DMSO measure pH prior to use.
Instrument: Acquity UPLC; Column: Acquity HSS T3, 50 mm length×2.1 mm i.d., 1.8 μm particle size. Detectors: PDA (250-350 nm) and SQD2 (90-1500m/z). Mobile phase A: 0.1% Formic acid in water; Mobile phase B: 0.1% Formic acid in Acetonitrile.
Injection volume: 5 μL, flow rate 0.6 mL/min.
Data processing including peak integration and identification was done with Waters OpenLynx software.

[4] = Metabolic stability in liver microsomes (intrinsic clearance); assay type: in vitro ADME
Description: The test compound was incubated under the generic condition (0.5 mg/ml microsomal protein, 1 mM NADPH, 1 mM MgCl2, and 0.1 M phosphate buffer, pH 7.4, 37° C.) at a defined substrate concentration (typically 1 μM) in liver microsomes of selected species across a time course (typically 0, 5, 10, 20, 40 and 60 minutes) at Cyprotex (Cheshire, UK). The liver microsomes, buffer and test compound will be pre-incubated for 5 minutes. The addition of the co-factor NADPH will initiate the reaction and the reaction was terminated by addition of acetonitrile. The samples were centrifuged prior to analysis by LC-MS/MS analysis. The relative amount of parent compound remaining in the active incubations vs. the control incubations (t=0 mins) for each compound was measured by peak area comparison. The in vitro metabolic half-life (t1/2) was calculated using the slope of the log-linear regression from the percentage parent compound remaining versus time relationship (κ), The in vitro intrinsic clearance (Cl^int) (μl/min/mg microsomal protein) was calculated using the in vitro metabolic half-life, incubation volume and the weight of microsomal protein in the incubation.

[5] = buffer pH2/DMSO, 72 h stirring at rt
[6] = buffer pH4/DMSO, 72 h stirring at rt
[7] = buffer pH7/DMSO, 72 h stirring at rt
[8] = reference DMSO solution, 72 h stirring at rt
[9] = Mycobacterium tuberculosis, H37RV

## CCc1nc2n(c1C(=O)NCc1ccc(-c3nc4n(n3)CCC(C(F)(F)F)C4)cc1)CCCC2 (racemic) [Compound 13ab]
[1]
  Bacterial activity pMIC50: 8.067
  MIC90: 0.024 µM (≈ 0.0113 µg/mL)
[2]
  GeneTox AmesIIb Score: 1
[3]; [5]
  Chemical stability data, Buffer pH2: 100%
[3]; [6]
  Chemical stability data, Buffer pH4: 100%
[3]; [7]
  Chemical stability data, Buffer pH7: 100%
[3]; [8]
  Chemical stability data, Vehicle DMSO: 100%
[4]; mouse liver microsomes
  Metabolic Stability (liver microsome intrinsic clearance) Clearance (mouse, μl/min./mg protein): 15.5 μl/min./mg protein
  Metabolic Stability Half life (mouse, min.): 1.49 h

## O=C(NCc1ccc(-c2nc3n(n2)CCC(C(F)(F)F)C3)cc1)c1c(C(F)F)nc2ccccn12 (racemic) [Compound 14ab]
[1]
  Bacterial activity pMIC50: 7.877
  MIC90: 0.036 µM (≈ 0.0177 µg/mL)
[2]
  GeneTox AmesIIb Score: 1
[3]; [5]
  Chemical stability data, Buffer pH2: 100%
[3]; [6]
  Chemical stability data, Buffer pH4: 100%
[3]; [7]
  Chemical stability data, Buffer pH7: 100%
[3]; [8]
  Chemical stability data, Vehicle DMSO: 100%
[4]; mouse liver microsomes
  Metabolic Stability (liver microsome intrinsic clearance) Clearance (mouse, μl/min./mg protein): <7.7 μl/min./mg protein
  Metabolic Stability Half life (mouse, min.): >3 h

## CCc1nc2ncccn2c1C(=O)NCc1ccc(-c2nc3n(n2)CCC(C(F)(F)F)C3)cc1 (racemic) [Compound 17ab]
[1]
  Bacterial activity pMIC50: 7.526
  MIC90: 0.105 µM (≈ 0.0493 µg/mL)
[2]
  GeneTox AmesIIb Score: 1
[3]; [5]
  Chemical stability data, Buffer pH2: 100%
[3]; [6]
  Chemical stability data, Buffer pH4: 97%
[3]; [7]
  Chemical stability data, Buffer pH7: 100%
[3]; [8]
  Chemical stability data, Vehicle DMSO: 100%
[4]; mouse liver microsomes
  Metabolic Stability (liver microsome intrinsic clearance) Clearance (mouse, μl/min./mg protein): <7.7 μl/min./mg protein
  Metabolic Stability Half life (mouse, min.): >3 h

## O=C(NCc1ccc(-c2cn3c(n2)CC(C(F)(F)F)CC3)cc1)c1c(C(F)(F)F)nc2ccccn12 (racemic) [Compound 18ab]
[1]
  Bacterial activity pMIC50: 7.431
  MIC90: 0.142 µM (≈ 0.0721 µg/mL)
[2]
  GeneTox AmesIIb Score: 1
[3]; [5]
  Chemical stability data, Buffer pH2: 98%
[3]; [6]
  Chemical stability data, Buffer pH4: 100%
[3]; [7]
  Chemical stability data, Buffer pH7: 100%
[3]; [8]
  Chemical stability data, Vehicle DMSO: 98%
[4]; mouse liver microsomes
  Metabolic Stability (liver microsome intrinsic clearance) Clearance (mouse, μl/min./mg protein): 11.1 μl/min./mg protein
  Metabolic Stability Half life (mouse, min.): 2.08 h

## CCc1nc2ncc(C)cn2c1C(=O)NCc1ccc(-c2cn3c(n2)CC(C(F)(F)F)CC3)cc1 (single isomer, unassigned) [Compound 3a]
[1]
  Bacterial activity pMIC50: 8.532
  MIC90: 0.008 µM (≈ 0.00386 µg/mL)
[2]; Salmonella typhimurium
  GeneTox AmesIIb Score: 1
[3]; 72 h, 50 µM
  Chemical stability data, Vehicle DMSO: 100%
[3]; 72 h, 50 µM, pH 2
  Chemical stability data, Buffer pH2: 100%
[3]; 72 h, 50 µM, pH 4
  Chemical stability data, Buffer pH4: 100%
[3]; 72 h, 50 µM, pH 7
  Chemical stability data, Buffer pH7: 100%
[4]; human liver microsomes
  Metabolic Stability (liver microsome intrinsic clearance) Clearance (human, μl/min./mg protein): 13.4 μl/min./mg protein
[4]; human, microsomes, 1 µM, pH 7.4
  Metabolic Stability Half life (human, min.): 1.72 h
[4]; mouse liver microsomes
  Metabolic Stability (liver microsome intrinsic clearance) Clearance (mouse, μl/min./mg protein): 7.78 μl/min./mg protein
[4]; mouse, microsomes, 1 µM, pH 7.4
  Metabolic Stability Half life (mouse, min.): 2.97 h

## Cc1cnc2nc(C3CC3)c(C(=O)NCc3ccc(-c4nc5n(n4)CCC(C(F)(F)F)C5)cc3)n2c1 (centres unmarked) [Compound 8ab]
[1]; [9]
  MIC90: 0.018 µM (≈ 0.00892 µg/mL)
  IC50: 7110 pM
[2]; Salmonella typhimurium
  GeneTox AmesIIb Score: 1
[3]; 72 h, 50 µM
  Chemical stability data, Vehicle DMSO: 100%
[3]; 72 h, 50 µM, pH 2
  Chemical stability data, Buffer pH2: 100%
[3]; 72 h, 50 µM, pH 4
  Chemical stability data, Buffer pH4: 100%
[3]; 72 h, 50 µM, pH 7
  Chemical stability data, Buffer pH7: 100%

## CCc1nc2cc(F)ccn2c1C(=O)NCc1ccc(-c2nc3n(n2)CCCC3)cc1 [Compound 120]
[1]; [9]
  MIC90: 0.042 µM (≈ 0.0176 µg/mL)
  IC50: 14500 pM
[2]; Salmonella typhimurium
  GeneTox AmesIIb Score: 1
[4]; mouse, microsomes, pH 7.4, Metabolic Stability Half life (mouse, min.)
  half-life at 1 µM: 1.61 h
[4]; mouse, microsomes, pH 7.4, mouse liver microsomes, read-out: Metabolic Stability (liver microsome intrinsic clearance) Clearance (mouse, μl/min./mg protein)
  microsomal CLint at 1 µM: 14.4 µL/min/mg
